Experimental data taken from patent US10144715B2, “Piperazine derivatives as liver X receptor modulators” (priority 2014, dated 2018).
Where two headings read alike, the source gives them in different places.

Tests used:
[1] = target: Gal4 DNA binding domain fused to the LBD of LXRα in HEK293 cells (Homo sapiens (Human), UniProt Q13133); experiment: LXR luciferase transcriptional reporter gene assay, agonist mode, LXRα; format: cell-based
LXR α LBD protein = LXR α LBD protein (Homo sapiens (Human), UniProt Q13133); experiment: LXR α radioligand binding assay (SPA, competition with [3H]TO901317); settings: read-out: LXRα Binding Ki
Sequence of LXR α LBD protein (Q13133 209-447): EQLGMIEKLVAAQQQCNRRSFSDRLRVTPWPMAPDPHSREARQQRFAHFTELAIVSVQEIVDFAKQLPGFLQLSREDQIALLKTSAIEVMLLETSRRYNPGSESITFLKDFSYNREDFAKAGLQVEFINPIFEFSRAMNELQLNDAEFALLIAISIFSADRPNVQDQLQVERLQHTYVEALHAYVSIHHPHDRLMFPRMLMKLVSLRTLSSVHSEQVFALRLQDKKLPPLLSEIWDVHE

[2] = target: Gal4 DNA binding domain fused to the LBD of LXRβ in HEK293 cells (Homo sapiens (Human), UniProt P55055); experiment: cell-based
Sequence of Gal4 DNA binding domain fused to the LBD of LXRβ in HEK293 cells (P55055 222-460 limits assumed): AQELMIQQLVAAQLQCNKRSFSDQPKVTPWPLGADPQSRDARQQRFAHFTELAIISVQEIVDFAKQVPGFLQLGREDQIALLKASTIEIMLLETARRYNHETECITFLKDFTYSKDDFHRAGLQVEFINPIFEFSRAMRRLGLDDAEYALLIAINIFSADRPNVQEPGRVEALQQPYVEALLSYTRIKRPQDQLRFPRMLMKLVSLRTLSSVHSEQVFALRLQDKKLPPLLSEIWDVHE

LXR β LBD protein = LXR β LBD protein (Homo sapiens (Human), UniProt P55055); experiment: biochemical; format: binding
Sequence of LXR β LBD protein (P55055 222-460 limits assumed): as above

[3] = Biological Test Example 2, agonist mode, read-out: Cell LXRα EC50
[4] = Biological Test Example 2, agonist mode
[5] = agonist mode, read-out: Cell LXRα EC50

Sequence of Gal4 DNA binding domain fused to the LBD of LXRα in HEK293 cells (Q13133 209-447): as the sequence (Q13133 209-447) above

CC(C)[C@@H]1CN(c2ccc(F)c(S(C)(=O)=O)c2)CCN1C(=O)OC(C)(C)C(F)(F)F [5-2, 1,1,1-trifluoro-2-methylpropan-2-yl (R)-4-(4-fluoro-3-(methylsulfonyl)phenyl)-2-isopropylpiperazine-1-carboxylate] was tested. Which “Cell LXRα efficacy” value [1] did it give?
The value was 947 (73) %.

And the EC50 [1]?
Its EC50 is 947 nM.

What about the Ki (LXR α LBD protein) of the same molecule?
Its Ki is 163 nM.

What about the EC50 [2] of the same molecule?
Its EC50 is 111 nM.

How did the “Cell LXRα efficacy” value [1] turn out when CC(C)[C@@H]1CN(c2ccc(F)c(S(C)(=O)=O)c2)CCN1C(=O)OC(C)C(F)(F)F (stereo partly drawn) [5-3, 1,1,1-trifluoropropan-2-yl (2R)-4-(4-fluoro-3-(methylsulfonyl)phenyl)-2-isopropylpiperazine-1-carboxylate] was run?
Its value is 1595 (86) %.

What about the EC50 [1] of the same molecule?
The EC50 was 1590 nM.

And the Ki (LXR α LBD protein)?
Its Ki is 474 nM.

And the EC50 [2]?
The EC50 was 198 nM.

Which EC50 [2] does the source give for CC(C)[C@@H]1CN(c2ccc(F)c(S(C)(=O)=O)c2)CCN1c1nccc(CO)n1 [11-15, (R)-(2-(4-(4-fluoro-3-(methylsulfonyl)phenyl)-2-isopropylpiperazin-1-yl)pyrimidin-4-yl)methanol] here?
Its EC50 is 2480 nM.

What about the “Cell LXRβ efficacy” value ([2]; agonist mode) of the same molecule?
The value was 2479 (33) %.

What about the Ki (LXR β LBD protein) of the same molecule?
Its Ki is 930 nM.

Which results are given for CC(C)[C@@H]1CN(c2ccc(CO)c(S(C)(=O)=O)c2)CCN1c1nc(C(F)(F)F)c(CO)o1 [11-16, (R)-(2-(4-(4-(hydroxymethyl)-3-(methylsulfonyl)phenyl)-2-isopropylpiperazin-1-yl)-4-(trifluoromethyl)oxazol-5-yl)methanol]?
EC50 [2]: 467 nM; Cell LXRβ efficacy ([2]; agonist mode): 467 (76) %; Ki (LXR β LBD protein; read-out: LXRβ Binding Ki): 95 nM

Which results are given for CC(C)[C@@H]1CN(c2ccc(CO)c(S(C)(=O)=O)c2)CCN1c1nc(C(F)(F)F)c(CO)s1 [11-17, (R)-(2-(4-(4-(hydroxymethyl)-3-(methylsulfonyl)phenyl)-2-isopropylpiperazin-1-yl)-4-(trifluoromethyl)thiazol-5-yl)methanol]?
EC50 [2]: 292 nM; Cell LXRβ efficacy ([2]; agonist mode): 292 (89) %; Ki (LXR β LBD protein; read-out: LXRβ Binding Ki): 53 nM

What does the source list for CC(C)[C@@H]1CN(c2ccc(F)c(S(C)(=O)=O)c2)CCN1c1ncc(C(=O)N(C)C2CN(C(=O)OC(C)(C)C)C2)c(C(F)(F)F)n1 [17-22, tert-butyl (R)-3-(2-(4-(4-fluoro-3-(methylsulfonyl)phenyl)-2-isopropylpiperazin-1-yl)-N-methyl-4-(trifluoromethyl)pyrimidine-5-carboxamido)azetidine-1-carboxylate]?
EC50 [1]: > 20000 nM; Ki (LXR α LBD protein): 670 nM; EC50 [2]: > 20000 nM

How did the EC50 [2] turn out when CC(C)[C@@H]1CN(c2cccc(S(C)(=O)=O)c2)CCN1c1ccc(C(C)(F)F)cn1 [20-2, (R)-1-(5-(1,1-difluoroethyl)pyridin-2-yl)-2-isopropyl-4-(3-(methylsulfonyl)phenyl)piperazine] was run?
Its EC50 is 706 nM.

And the “Cell LXRβ efficacy” value ([2]; agonist mode)?
Its value is 706 (43) %.

What about the Ki (LXR β LBD protein; read-out: LXRβ Binding Ki) of the same molecule?
Its Ki is 73 nM.

For CC(C)[C@@H]1CN(c2ccc(F)c(S(C)(=O)=O)c2)CCN1c1ccc(C(C)(O)C(F)(F)F)cn1 (stereo partly drawn) [20-3, 1,1,1-trifluoro-2-(6-((R)-4-(4-fluoro-3-(methylsulfonyl)phenyl)-2-isopropylpiperazin-1-yl)pyridin-3-yl)propan-2-ol], which EC50 [2] is on record?
The EC50 was 443 nM.

And the “Cell LXRβ efficacy” value ([2]; agonist mode)?
The value was 443 (48) %.

What about the Ki (LXR β LBD protein; read-out: LXRβ Binding Ki) of the same molecule?
Its Ki is 52 nM.

CC(C)[C@H]1CN(c2ccc(CO)c(S(C)(=O)=O)c2)CCN1CC1CCN(CC(F)(F)F)CC1 [48-50, (S)-(4-(3-isopropyl-4-((1-(2,2,2-trifluoroethyl)piperidin-4-yl)methyl)piperazin-1-yl)-2-(methylsulfonyl)phenyl)methanol] was tested. Which “Cell LXRα efficacy” value [1] did it give?
Its value is 386 (77) %.

And the EC50 [1, 3]?
The EC50 was 386 nM.

And the Ki (LXR α LBD protein; Biological Test Example 1)?
Its Ki is 587 nM.

What does the source list for CS(=O)(=O)c1cccc(N2CCN(CC3CCC(C(F)(F)F)O3)[C@@H](c3ccc(F)cc3)C2)c1 (stereo partly drawn) [48-73, (2S)-2-(4-fluorophenyl)-4-(3-(methylsulfonyl)phenyl)-1-((5-(trifluoromethyl)tetrahydrofuran-2-yl)methyl)piperazine]?
EC50 [1, 3]: > 20000 nM; Ki (LXR α LBD protein): 2250 nM

With CS(=O)(=O)c1cccc(N2CCN(CC3CCC(C(F)(F)F)O3)[C@@H](c3ccc(F)cc3)C2)c1 (stereo partly drawn) [48-74, (2S)-2-(4-fluorophenyl)-4-(3-(methylsulfonyl)phenyl)-1-((5-(trifluoromethyl)tetrahydrofuran-2-yl)methyl)piperazine] as the molecule, how does the EC50 [1, 3] read?
Its EC50 is > 20000 nM.

What about the Ki (LXR α LBD protein; Biological Test Example 1) of the same molecule?
The Ki was 11400 nM.

CC(C)C1CN(c2ccc(C#N)c(S(C)(=O)=O)c2)CCN1CC1CCC(C(F)(F)F)CC1 [50-2, 4-((S)-3-isopropyl-4-(((1r,4S)-4-(trifluoromethyl)cyclohexyl)methyl)piperazin-1-yl)-2-(methylsulfonyl)benzonitrile] was tested. Which “Cell LXRα efficacy” value [1] did it give?
Its value is 721 (72) %.

And the EC50 ([1]; read-out: Cell LXRα EC50)?
The EC50 was 721 nM.

What about the Ki (LXR α LBD protein) of the same molecule?
The Ki was 358 nM.

And the “Cell LXRβ efficacy” value [2, 4]?
Its value is 542 (85) %.

With CC1(C)CCC(O)(CN2CCN(c3cccc(S(C)(=O)=O)c3)C[C@H]2c2ccccc2)CC1 [53-2, (R)-4,4-dimethyl-1-((4-(3-(methylsulfonyl)phenyl)-2-phenylpiperazin-1-yl)methyl)cyclohexan-1-ol] as the molecule, how does the EC50 [2] read?
Its EC50 is 2080 nM.

And the “Cell LXRβ efficacy” value [2, 4]?
The value was 2082 (56) %.

And the Ki (LXR β LBD protein; Biological Test Example 1, read-out: LXRβ Binding Ki)?
The Ki was 609 nM.

How did the “Cell LXRα efficacy” value [1] turn out when Cc1nc(N2CCN(c3ccc(F)c(S(C)(=O)=O)c3)C[C@H]2C(C)C)ncc1S(C)(=O)=O [Cpd No 3-3, (R)-2-(4-(4-fluoro-3-(methylsulfonyl)phenyl)-2-isopropylpiperazin-1-yl)-4-methyl-5-(methylsulfonyl)pyrimidine] was run?
Its value is 9543 (37) %.

What about the EC50 [1, 5] of the same molecule?
Its EC50 is 9540 nM.

And the Ki (LXR α LBD protein)?
The Ki was > 3330 nM.

How did the “Cell LXRα efficacy” value [1] turn out when CC(C)[C@@H]1CN(c2ccc(F)c(S(N)(=O)=O)c2)CCN1c1ccc(C(F)(F)F)cn1 [Cpd No 18-1, (R)-2-fluoro-5-(3-isopropyl-4-(5-(trifluoromethyl)pyridin-2-yl)piperazin-1-yl)benzenesulfonamide] was run?
The value was 591 (104) %.

What about the EC50 [1, 5] of the same molecule?
The EC50 was 591 nM.

What about the Ki (LXR α LBD protein) of the same molecule?
Its Ki is 73 nM.

How did the “Cell LXRα efficacy” value [1] turn out when CC(C)[C@@H]1CN(c2ccc(F)c(S(C)(=O)=O)c2)CCN1c1ncc(C(F)(F)F)cc1N [Cpd No 21-1, (R)-2-(4-(4-fluoro-3-(methylsulfonyl)phenyl)-2-isopropylpiperazin-1-yl)-5-(trifluoromethyl)pyridin-3-amine] was run?
The value was 3767 (74) %.

And the EC50 [1]?
Its EC50 is 3770 nM.

And the Ki (LXR α LBD protein)?
Its Ki is 608 nM.

With CC(C)[C@@H]1CN(c2ccc(F)c(S(C)(=O)=O)c2)CCN1c1nc(C(F)(F)F)cc(=O)[nH]1 [Cpd No 24-1, (R)-2-(4-(4-fluoro-3-(methylsulfonyl)phenyl)-2-isopropylpiperazin-1-yl)-6-(trifluoromethyl)pyrimidin-4-ol] as the molecule, how does the EC50 ([1]; read-out: Cell LXRα EC50) read?
Its EC50 is > 20000 nM.

What about the Ki (LXR α LBD protein) of the same molecule?
The Ki was > 3330 nM.

What does the source list for CC(C)[C@@H]1CN(c2ccc(CO)c(S(C)(=O)=O)c2)CCN1c1ncc(C(C)(C)C#N)c(C(F)(F)F)n1 [Cpd No 25-1, (R)-2-(2-(4-(4-(hydroxymethyl)-3-(methylsulfonyl)phenyl)-2-isopropylpiperazin-1-yl)-4-(trifluoromethyl)pyrimidin-5-yl)-2-methylpropanenitrile]?
Cell LXRα efficacy [1]: 174 (44) %; EC50 [1, 5]: 174 nM; Ki (LXR α LBD protein): 32 nM

For CC(C)[C@@H]1CN(c2ccc(CO)c(S(C)(=O)=O)c2)CCN1c1nc(C(F)(F)F)c(C(C)(C)O)s1 [Cpd No 27-1, (R)-2-(2-(4-(4-(hydroxymethyl)-3-(methylsulfonyl)phenyl)-2-isopropylpiperazin-1-yl)-4-(trifluoromethyl)thiazol-5-yl)propan-2-ol], which “Cell LXRα efficacy” value [1] is on record?
Its value is 225 (97) %.

What about the EC50 [1, 5] of the same molecule?
The EC50 was 225 nM.

What about the Ki (LXR α LBD protein) of the same molecule?
Its Ki is 27 nM.

Which “Cell LXRα efficacy” value [1] does the source give for COc1cnc(N2CCN(c3ccc(F)c(S(C)(=O)=O)c3)C[C@H]2C(C)C)nc1C(F)(F)F [Cpd No 29-1, (R)-2-(4-(4-fluoro-3-(methylsulfonyl)phenyl)-2-isopropylpiperazin-1-yl)-5-methoxy-4-(trifluoromethyl)pyrimidine] here?
The value was 266 (104) %.

And the EC50 [1, 5]?
Its EC50 is 266 nM.

And the Ki (LXR α LBD protein)?
Its Ki is 9 nM.

With CC(C)[C@@H]1CN(c2ccc(F)c(S(C)(=O)=O)c2)CCN1c1ncc(C(F)(F)F)c(Cl)n1 [Cpd No 36-1, (R)-4-chloro-2-(4-(4-fluoro-3-(methylsulfonyl)phenyl)-2-isopropylpiperazin-1-yl)-5-(trifluoromethyl)pyrimidine] as the molecule, how does the “Cell LXRα efficacy” value [1] read?
The value was 305 (100) %.

What about the EC50 ([1]; read-out: Cell LXRα EC50) of the same molecule?
The EC50 was 305 nM.

And the Ki (LXR α LBD protein)?
Its Ki is 30 nM.

With CC(O)c1nc(N2CCN(c3ccc(F)c(S(C)(=O)=O)c3)C[C@H]2C(C)C)ncc1C(F)(F)F (stereo partly drawn) [Cpd No 38-1, 1-(2-((R)-4-(4-fluoro-3-(methylsulfonyl)phenyl)-2-isopropylpiperazin-1-yl)-5-(trifluoromethyl)pyrimidin-4-yl)ethan-1-ol] as the molecule, how does the “Cell LXRα efficacy” value [1] read?
The value was 165 (89) %.

What about the EC50 [1, 5] of the same molecule?
Its EC50 is 165 nM.

What about the Ki (LXR α LBD protein) of the same molecule?
The Ki was 67 nM.

How did the “Cell LXRα efficacy” value [1] turn out when CC(C)[C@@H]1CN(c2ccc(F)c(S(C)(=O)=O)c2)CCN1c1ncc(C(F)(F)F)c(C#N)n1 [Cpd No 43-1, (R)-2-(4-(4-fluoro-3-(methylsulfonyl)phenyl)-2-isopropylpiperazin-1-yl)-5-(trifluoromethyl)pyrimidine-4-carbonitrile] was run?
The value was 136 (101) %.

What about the EC50 ([1]; read-out: Cell LXRα EC50) of the same molecule?
The EC50 was 136 nM.

And the Ki (LXR α LBD protein)?
Its Ki is 26 nM.

For CC(C)[C@H]1CN(c2ccc(C#N)c(S(C)(=O)=O)c2)CCN1C[C@H]1CC[C@@H](C(F)(F)F)CC1 [Cpd No 50-1, 4-((S)-3-isopropyl-4-(((1s,4R)-4-(trifluoromethyl)cyclohexyl)methyl)piperazin-1-yl)-2-(methylsulfonyl)benzonitrile], which “Cell LXRα efficacy” value [1] is on record?
Its value is 181 (100) %.

What about the EC50 ([1]; read-out: Cell LXRα EC50) of the same molecule?
The EC50 was 181 nM.

And the Ki (LXR α LBD protein)?
Its Ki is 107 nM.

And the “Cell LXRβ efficacy” value [2, 4]?
The value was 88%.

Which “Cell LXRα efficacy” value [1, 4] does the source give for CC(=O)NCc1ccc(N2CCN(c3nccc(C(F)(F)F)n3)[C@H](C(C)C)C2)cc1S(C)(=O)=O [Cpd No 54-1, (R)-N-(4-(3-isopropyl-4-(4-(trifluoromethyl)pyrimidin-2-yl)piperazin-1-yl)-2-(methylsulfonyl)benzyl)acetamide] here?
The value was 72%.

And the EC50 [1, 3]?
Its EC50 is 2200 nM.

And the Ki (LXR α LBD protein; Biological Test Example 1)?
The Ki was 716 nM.
